Legend:
[1] = tested on: Usp22 and Usp21 expression in iTreg cells; test: In vitro iTreg cell TGF-β assay, USP mRNA level; format: cell-based; conditions: TGF-β added, inhibitor 25 μg/mL
Text: FIG. 8: TGF-β induces expression of Usp22 and Usp21 in Treg cells. A, Visual representation of Tumor Conditioned Media (TCM) experiments. B, iTreg USP mRNA level under TGF-β induction post-polarization. Usp22: n=18-19; Usp21: n=7-8; Usp7: 4-5. C, iTreg USP mRNA level under TGF-β with and without a TGF-β inhibitor. Usp22: n=3-11; Usp21: n=8-18; Usp7: 3-8. D, Treg FoxP3 mRNA level with TGF-β induction (n=10). B-D, All mRNA values calculated relative to WT untreated iTreg cells. E, TGF-β level in B16, LLC1 and EG7 tumor conditioned media (n=3). F-H, Correlation between USP induction and TGF-β level in the tumor conditioned media. Usp22: n=3-10; Usp21: n=3-8; Usp7: n=3-6. I, TGF-β mRNA level of control or TGF-β shRNA treated B16 cells (n=3). J, mRNA level of Usp22 in sorted itTreg cells from mice injected with shRNA treated B 16 cells (n=4). B, D, and I, Two-tailed unpaired t-test was performed to determine statistical significance. C and E Ordinary one-way Anova with multiple comparisons between groups was performed to determine statistical significance. All data are presented as mean±stdev. NS, not significant. *P<0.05, **P<0.01, ***P<0.001, ****P<0.0001.
Many types of tumors secrete large amounts of TGF-β, which dampens immune responses and promotes metastasis (21, 22). […]

[2] = tested on: USP mRNA level in nTreg and iTreg cells; test: In vitro inhibitor assays, USP mRNA level in Treg cells; format: cell-based; conditions: 24 hours
Method: FIG. 3: Usp22 and Usp21 are required for FOXP3 stability in nTreg cells under environmental and metabolic stress found in the TME. All mRNA values calculated relative to unchallenged WT Treg cells. A, nTreg USP mRNA level in normoxic (21% O2) verses hypoxic (1% O2) conditions after 24 hours (n=6-13). B, FOXP3 MFI change in 22KO nTreg cells relative to WT nTreg cells after 72 hours in normoxic (21% O2) verses hypoxic (1% O2) conditions (n=5). C, nTreg USP mRNA level after treatment with dMOG for 24 hours (n=6). D, USP mRNA level in nTreg cells after exposure to glucose-restricted (0.5 mM) conditions after 24 hours relative to normal media (11 mM glucose) (n=7-18). E, Relative FOXP3 MFI change in nTreg cells from control and cells cultured under low glucose conditions after 48 hours (n=3). F, nTreg USP mRNA level under amino acid starvation for 24 hours (n=5-9). […]
Along with the competition for glucose, a scarcity of amino acids within tumors may also alter immune cell function (35). […] So, we treated Treg cells with an inhibitor of mitochondrial ATP synthase, Oligomycin A, and measured USP mRNA levels.
All nTreg and iTreg cells were plated as described above DMOG (Sigma Catalog #D3695) was administered to the cells in relevant experiments at 1 mM for 24 hours. […] FOXP3 protein level was assessed via flow cytometry following 48 hours of treatment of inhibitors described above. […]

CC(C)(O)c1cc(Nc2cc(Oc3cn(C4CC4)nc3C3CCOCC3)ccn2)ccn1 [LY 3200882] was tested, and the “TGF-β-induced increase of Usp22 and Usp21 expression” value [1] was “largely diminished”.

In the case of CC[C@H]1/C=C/C=C/C[C@@H](C)[C@H](O)[C@@](C)(O)C(=O)[C@@H](C)[C@H](O)[C@@H](C)C(=O)[C@@H](C)[C@H](O)[C@@H](C)/C=C/C(=O)O[C@@H]2[C@H](C)[C@H](CC1)O[C@]1(CC[C@H](C)[C@H](C[C@@H](C)O)O1)[C@H]2C [Oligomycin A], the “USP mRNA level” value ([2]; nTreg cells, 1 μM) is reported as “increased both Usp22 and Usp21, but not Usp7”.

COC(=O)CNC(=O)C(=O)OC [dMOG, dimethyloxalylglycine] was tested, and the “Usp22 mRNA level” value ([2]; nTreg and iTreg cells, 1 mM) was “increased Usp22 mRNA level”.
